Activity calls are given as the source filed them. No cut-off for these calls is given here.
Columns and labels:
MDA-MB-231 [1] = experiment: Antiproliferative activity against 53BP1-knockdown human MDA-MB-231 cells incubated for 24 hrs by MTT assay; assay type: functional, cell-based
[2] = Clearance in Sprague-Dawley rat at 1 mg/kg, iv by LC-MS/MS analysis; assay type: ADME, organism-based; conditions: in vivo
SW48 = experiment: Antiproliferative activity against BRCA2-deficient human SW48 cells assessed as inhibition of cell proliferation incubated for 5 days by MTT assay; assay type: functional, cell-based; conditions: SW48, 120 h, read-out: IC50
[3] = Toxicity in BALB/c mouse xenografted with human MDA-MB-231 cells assessed as heart damage at 20 to 40 mg/kg, ip administered for 21 days by H and E staining based analysis; assay type: organism-based; conditions: in vivo, 504 h, dose 20-40 mg/kg, time 21 day
[4] = Metabolic stability in rat liver microsome assessed as half life; assay type: ADME; conditions: liver microsomes
[5] = Metabolic stability in human liver microsome assessed as intrinsic clearance; assay type: ADME; conditions: liver microsomes, read-out: CLH
[6] = target: Poly [ADP-ribose] polymerase 1 (Homo sapiens, UniProt P09874); experiment: Inhibition of human PARP1 incubated for 90 mins by colorimetric assay
Chain of Poly [ADP-ribose] polymerase 1 (P09874 whole entry): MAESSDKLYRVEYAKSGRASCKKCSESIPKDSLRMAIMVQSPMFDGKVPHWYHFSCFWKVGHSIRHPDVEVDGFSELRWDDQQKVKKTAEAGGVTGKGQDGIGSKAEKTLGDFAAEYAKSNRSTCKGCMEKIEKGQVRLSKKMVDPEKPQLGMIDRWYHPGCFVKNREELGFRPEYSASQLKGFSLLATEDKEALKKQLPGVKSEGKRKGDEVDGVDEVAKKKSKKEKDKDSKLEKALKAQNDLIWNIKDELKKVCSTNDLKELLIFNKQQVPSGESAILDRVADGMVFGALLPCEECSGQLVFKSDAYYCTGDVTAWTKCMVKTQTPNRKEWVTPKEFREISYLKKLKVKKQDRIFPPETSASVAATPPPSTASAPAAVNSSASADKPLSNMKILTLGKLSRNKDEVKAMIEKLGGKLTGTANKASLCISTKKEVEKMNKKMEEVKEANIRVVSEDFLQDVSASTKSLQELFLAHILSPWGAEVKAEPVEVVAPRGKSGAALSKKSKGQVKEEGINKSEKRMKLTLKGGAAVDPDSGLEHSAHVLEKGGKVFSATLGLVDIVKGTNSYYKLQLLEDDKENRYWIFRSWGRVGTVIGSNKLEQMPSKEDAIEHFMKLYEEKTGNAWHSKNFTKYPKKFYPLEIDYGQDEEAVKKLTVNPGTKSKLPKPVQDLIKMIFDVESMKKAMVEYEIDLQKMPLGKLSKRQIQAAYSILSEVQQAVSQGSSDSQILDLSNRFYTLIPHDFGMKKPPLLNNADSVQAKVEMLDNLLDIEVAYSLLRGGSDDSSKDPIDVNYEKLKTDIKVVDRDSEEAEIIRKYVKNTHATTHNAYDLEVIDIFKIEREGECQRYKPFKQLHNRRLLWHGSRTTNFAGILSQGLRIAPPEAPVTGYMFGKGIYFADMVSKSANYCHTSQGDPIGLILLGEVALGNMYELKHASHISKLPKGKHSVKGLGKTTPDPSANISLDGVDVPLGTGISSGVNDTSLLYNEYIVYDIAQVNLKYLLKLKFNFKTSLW

MDA-MB-231 [7] = experiment: Antitumor activity against human MDA-MB-231 cells xenografted in BALB/c mouse assessed as tumor growth inhibition at 25 mg/kg, ip administered for 21 days; assay type: functional; conditions: MDA-MB-231, 504 h, time 21 day, read-out: TGI
MDA-MB-231 [8] = experiment: Antiproliferative activity against human MDA-MB-231 cells incubated for 4 days by MTT assay; assay type: functional, cell-based; conditions: time 4.0 day
[9] = Toxicity in BALB/c mouse xenografted with human MDA-MB-231 cells assessed as lung damage at 20 to 40 mg/kg, ip administered for 21 days by H and E staining based analysis; assay type: organism-based; conditions: in vivo, 504 h, dose 20-40 mg/kg, time 21 day
[10] = Metabolic stability in mouse liver microsome assessed as intrinsic clearance; assay type: ADME; conditions: liver microsomes, read-out: CLH
DNA polymerase theta = DNA polymerase theta (Homo sapiens, UniProt O75417); experiment: Inhibition of DNA polymerase theta (unknown origin) ATPase activity incubated for 60 mins in presence of ATP by ADP-glo kinase assay
Chain of DNA polymerase theta (O75417 whole entry): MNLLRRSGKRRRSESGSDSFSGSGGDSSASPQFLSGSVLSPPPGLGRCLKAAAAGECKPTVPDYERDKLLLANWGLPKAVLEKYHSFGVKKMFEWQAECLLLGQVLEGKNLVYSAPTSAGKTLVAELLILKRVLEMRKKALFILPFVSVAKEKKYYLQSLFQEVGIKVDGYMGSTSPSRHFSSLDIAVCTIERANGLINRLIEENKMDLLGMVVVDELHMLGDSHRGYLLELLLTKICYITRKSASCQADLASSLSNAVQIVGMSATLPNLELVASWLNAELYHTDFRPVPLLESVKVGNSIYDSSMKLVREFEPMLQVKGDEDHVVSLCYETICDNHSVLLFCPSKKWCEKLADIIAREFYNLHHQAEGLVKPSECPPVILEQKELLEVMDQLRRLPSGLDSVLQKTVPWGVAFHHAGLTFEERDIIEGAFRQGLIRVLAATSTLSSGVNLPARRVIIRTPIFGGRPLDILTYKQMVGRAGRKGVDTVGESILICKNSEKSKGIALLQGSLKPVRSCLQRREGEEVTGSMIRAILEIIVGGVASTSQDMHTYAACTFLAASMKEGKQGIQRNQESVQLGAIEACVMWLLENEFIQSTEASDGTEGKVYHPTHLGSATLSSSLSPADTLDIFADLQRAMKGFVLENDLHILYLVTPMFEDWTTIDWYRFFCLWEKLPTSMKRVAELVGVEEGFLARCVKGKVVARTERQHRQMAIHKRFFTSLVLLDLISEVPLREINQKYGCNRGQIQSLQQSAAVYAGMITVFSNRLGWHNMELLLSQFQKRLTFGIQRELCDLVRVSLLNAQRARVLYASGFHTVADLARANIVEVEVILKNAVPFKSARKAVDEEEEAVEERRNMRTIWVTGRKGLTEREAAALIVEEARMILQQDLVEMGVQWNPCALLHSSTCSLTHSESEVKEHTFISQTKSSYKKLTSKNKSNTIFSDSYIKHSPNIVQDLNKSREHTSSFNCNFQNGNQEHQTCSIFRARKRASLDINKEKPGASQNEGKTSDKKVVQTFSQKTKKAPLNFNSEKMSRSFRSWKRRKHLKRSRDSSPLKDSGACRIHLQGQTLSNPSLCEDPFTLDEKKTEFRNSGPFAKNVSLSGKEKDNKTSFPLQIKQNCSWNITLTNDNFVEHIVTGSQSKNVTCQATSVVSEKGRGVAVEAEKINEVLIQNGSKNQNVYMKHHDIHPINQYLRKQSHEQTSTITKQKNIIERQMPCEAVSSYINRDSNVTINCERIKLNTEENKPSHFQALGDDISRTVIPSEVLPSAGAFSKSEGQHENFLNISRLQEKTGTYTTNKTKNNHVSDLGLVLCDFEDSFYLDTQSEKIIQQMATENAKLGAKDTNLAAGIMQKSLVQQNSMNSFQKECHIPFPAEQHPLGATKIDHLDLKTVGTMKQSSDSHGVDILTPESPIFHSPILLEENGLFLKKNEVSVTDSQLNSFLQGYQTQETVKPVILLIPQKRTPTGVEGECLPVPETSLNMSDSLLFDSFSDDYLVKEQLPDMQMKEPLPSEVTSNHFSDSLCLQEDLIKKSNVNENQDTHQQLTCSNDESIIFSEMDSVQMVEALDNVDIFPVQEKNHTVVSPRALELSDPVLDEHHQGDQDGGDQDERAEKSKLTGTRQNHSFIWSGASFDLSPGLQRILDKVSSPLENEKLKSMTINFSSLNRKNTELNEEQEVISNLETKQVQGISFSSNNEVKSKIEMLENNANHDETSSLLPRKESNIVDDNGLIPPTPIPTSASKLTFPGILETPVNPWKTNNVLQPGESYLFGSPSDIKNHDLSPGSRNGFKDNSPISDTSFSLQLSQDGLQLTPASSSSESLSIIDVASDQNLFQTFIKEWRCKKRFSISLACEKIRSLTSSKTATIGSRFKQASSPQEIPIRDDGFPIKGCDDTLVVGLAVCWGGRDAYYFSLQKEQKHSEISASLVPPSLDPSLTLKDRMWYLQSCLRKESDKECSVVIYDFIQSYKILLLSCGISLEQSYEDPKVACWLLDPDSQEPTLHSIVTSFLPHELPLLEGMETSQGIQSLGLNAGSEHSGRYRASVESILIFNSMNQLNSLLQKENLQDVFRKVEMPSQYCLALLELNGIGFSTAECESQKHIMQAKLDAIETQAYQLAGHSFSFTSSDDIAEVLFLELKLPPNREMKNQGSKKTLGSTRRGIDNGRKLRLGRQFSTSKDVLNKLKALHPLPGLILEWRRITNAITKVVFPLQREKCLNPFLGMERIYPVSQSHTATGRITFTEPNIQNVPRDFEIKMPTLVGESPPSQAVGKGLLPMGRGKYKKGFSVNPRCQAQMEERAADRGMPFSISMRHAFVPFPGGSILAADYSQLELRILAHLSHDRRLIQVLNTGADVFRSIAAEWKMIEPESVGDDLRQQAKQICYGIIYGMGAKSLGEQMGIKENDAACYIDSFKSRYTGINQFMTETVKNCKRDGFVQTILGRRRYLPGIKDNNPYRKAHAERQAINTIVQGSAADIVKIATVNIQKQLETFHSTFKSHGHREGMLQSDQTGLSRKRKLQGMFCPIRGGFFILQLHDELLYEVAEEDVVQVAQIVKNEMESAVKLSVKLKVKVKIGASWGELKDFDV

[11] = Half life in Sprague-Dawley rat at 1 mg/kg, iv by LC-MS/MS analysis; assay type: ADME, organism-based; conditions: in vivo
MDA-MB-436 [12] = experiment: Inhibition of colony formation in human MDA-MB-436 cells at 2 uM incubated for 9 days by crystal violet staining based analysis; assay type: functional, cell-based; conditions: time 9.0 day
[13] = Toxicity in BALB/c mouse xenografted with human MDA-MB-231 cells assessed as spleen damage at 20 to 40 mg/kg, ip administered for 21 days by H and E staining based analysis; assay type: organism-based; conditions: in vivo, 504 h, dose 20-40 mg/kg, time 21 day
[14] = Apparent volume of distribution in Sprague-Dawley rat at 1 mg/kg, iv by LC-MS/MS analysis; assay type: ADME, organism-based; conditions: in vivo, read-out: Vz
[15] = MRT (0 to infinity) in Sprague-Dawley rat at 1 mg/kg, iv by LC-MS/MS analysis; assay type: ADME, organism-based; conditions: in vivo
[16] = target: T1, Poly [ADP-ribose] polymerase tankyrase-2 (Homo sapiens, UniProt Q9H2K2); experiment: Inhibition of PARP5b (unknown origin)
T1 sequence (Q9H2K2 whole entry): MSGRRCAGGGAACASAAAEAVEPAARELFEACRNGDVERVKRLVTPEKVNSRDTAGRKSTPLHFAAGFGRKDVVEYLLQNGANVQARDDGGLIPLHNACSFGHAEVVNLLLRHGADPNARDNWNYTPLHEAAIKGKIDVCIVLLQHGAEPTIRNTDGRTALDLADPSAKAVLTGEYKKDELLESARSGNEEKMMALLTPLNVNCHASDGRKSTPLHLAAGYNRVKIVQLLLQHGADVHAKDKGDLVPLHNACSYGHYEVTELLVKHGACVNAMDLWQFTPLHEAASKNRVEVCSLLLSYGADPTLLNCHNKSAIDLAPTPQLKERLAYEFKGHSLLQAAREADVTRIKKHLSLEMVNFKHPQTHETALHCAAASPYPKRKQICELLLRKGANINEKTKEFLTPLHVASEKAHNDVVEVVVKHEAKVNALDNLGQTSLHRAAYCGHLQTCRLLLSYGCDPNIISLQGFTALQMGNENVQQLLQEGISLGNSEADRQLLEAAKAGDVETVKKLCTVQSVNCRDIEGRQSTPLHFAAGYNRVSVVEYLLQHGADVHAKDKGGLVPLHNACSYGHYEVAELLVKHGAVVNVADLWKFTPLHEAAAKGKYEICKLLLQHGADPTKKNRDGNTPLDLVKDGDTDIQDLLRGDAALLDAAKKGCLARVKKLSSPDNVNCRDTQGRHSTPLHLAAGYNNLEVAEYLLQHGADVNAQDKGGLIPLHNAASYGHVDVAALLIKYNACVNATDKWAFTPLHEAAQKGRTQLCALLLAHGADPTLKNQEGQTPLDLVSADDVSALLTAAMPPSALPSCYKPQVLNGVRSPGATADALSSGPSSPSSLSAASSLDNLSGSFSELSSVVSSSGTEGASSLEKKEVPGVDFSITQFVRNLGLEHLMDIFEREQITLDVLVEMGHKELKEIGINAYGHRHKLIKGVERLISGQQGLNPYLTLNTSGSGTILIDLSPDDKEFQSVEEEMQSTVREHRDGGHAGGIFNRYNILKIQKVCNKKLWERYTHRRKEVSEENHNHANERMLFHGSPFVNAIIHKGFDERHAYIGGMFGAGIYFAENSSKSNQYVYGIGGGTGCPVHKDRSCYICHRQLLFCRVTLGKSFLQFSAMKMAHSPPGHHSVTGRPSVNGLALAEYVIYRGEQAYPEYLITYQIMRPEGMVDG

MDA-MB-436 [17] = experiment: Antiproliferative activity against BRCA1-deficient human MDA-MB-436 cells assessed as inhibition of cell proliferation incubated for 5 days by MTT assay; assay type: functional, cell-based; conditions: MDA-MB-436, 120 h
[18] = AUC (0 to t) in Sprague-Dawley rat at 1 mg/kg, iv by LC-MS/MS analysis; assay type: ADME, organism-based; conditions: in vivo
MDA-MB-231 [19] = experiment: Antitumor activity against human MDA-MB-231 cells xenografted in BALB/c mouse assessed as tumor growth inhibition at 40 mg/kg, ip administered for 21 days; assay type: functional; conditions: MDA-MB-231, 504 h, time 21 day, read-out: TGI

Q: With `COc1ccc(Cl)cc1-c1cc(C)ncc1C(=O)Nc1nnc(OCC2CCN(C(=O)c3cc(Cc4n[nH]c(=O)c5ccccc45)ccc3F)CC2)s1` as the molecule, how does the Activity (MDA-MB-231 [1]) read?
A: Active

Q: And the clearance [2]?
A: 22.7 mL/min/kg

Q: What about the IC50 (SW48) of the same molecule?
A: 2900 nM

Q: And the Activity [3]?
A: Non-Toxic

Q: And the half-life [4]?
A: 3.11 min

Q: What about the CLint scaled [5] of the same molecule?
A: 681 mL/min/kg

Q: And the IC50 [6]?
A: 5.4 nM

Q: What about the inhibition in vivo at 25 mg/kg (MDA-MB-231 [7]) of the same molecule?
A: 54.4%

Q: What about the Activity (MDA-MB-231 [8]) of the same molecule?
A: Active

Q: What about the Activity [9] of the same molecule?
A: Non-Toxic

Q: What about the CLint scaled [10] of the same molecule?
A: 1070 mL/min/kg

Q: What about the IC50 (DNA polymerase theta) of the same molecule?
A: 45.6 nM

Q: What about the half-life [11] of the same molecule?
A: 120 min

Q: What about the inhibition (MDA-MB-436 [12]) of the same molecule?
A: Active

Q: And the Activity [13]?
A: Non-Toxic

Q: What about the Vd [14] of the same molecule?
A: 3.97 L/kg

Q: And the MRT inf [15]?
A: 36 min

Q: What about the IC50 [16] of the same molecule?
A: 156 nM

Q: And the IC50 (MDA-MB-436 [17])?
A: 2700 nM

Q: And the AUC(0-t) [18]?
A: 724 ng·h/mL

Q: What about the inhibition in vivo at 40 mg/kg (MDA-MB-231 [19]) of the same molecule?
A: 74.7%
